Where two headings read alike, the source gives them in different places.
What was measured:
[1] = system: K562 human chronic myeloid leukemia xenograft; assay: Subcutaneous K562 human chronic myeloid leukemia xenograft model
[2] = Toxicity study (MTD) in normal mice; conditions: single i.p. injection; C3H female normal mice; checked daily for 40 days (MTD40)
[3] = system: HCT116 human colon cancer xenograft; assay: Subcutaneous HCT116 human colon cancer xenograft model; type: in vivo, Mus Musculus; conditions: for TGI: HCT116, day 29
Method: Each mouse was inoculated subcutaneously with 5×10^6 HCT116 tumor cells in 0.1 ml PBS for tumor development. Treatments were started when the tumor volume reached 100 mm^3. […] Body weight and tumor volume were measured twice a week.

[4] = Rat MTD study; type: in vivo, Sprague-Dawley rats
Method: In the rat MTD study, Sprague-Dawley rats were dosed with 801 HCl at a concentration of 6 mg/ml via intravenous infusion or slow intravenous injection. The MTD of 801 in normal rats was 120 mg/kg/day. In the 7-day repeating dose study, the rats were administered with […] via BID slow IV injection for 7 days.

[5] = system: COLO205 human colon cancer xenograft; assay: Subcutaneous COLO205 human colon cancer xenograft model; type: in vivo, Mus Musculus
Method: Each mouse was inoculated subcutaneously with 5×10^6 COLO205 tumor cells in 0.1 ml PBS for tumor development. Treatments were started when the tumor volume reached 120 mm^3. […] Body weight and tumor volume were measured twice a week.

[6] = Toxicity studies in Cynomolgus monkeys (MTD); type: in vivo
[7] = system: H23 Human Non-small Cell Lung Cancer Cells; assay: Colony formation assay, H23; type: cell-based; conditions: read-out: IC50 (H23)
Method: (§1) Cancer cells were plated in 60 mm Petri dishes containing 2.7 ml of medium (modified McCoy's 5a medium containing 10% fetal bovine serum and 100 units/ml penicillin and 100 ug/ml streptomycin). The cells were incubated in a CO2 incubator at 37 degree C. for 5 hours for attachment to the bottom of Petri dishes. Drugs were made up fresh in medium at ten times the final concentration, and then 0.3 ml of this stock solution was added to the 2.7 ml of medium in the dish. The cells were then incubated with drugs for 72 hours at 37 degree C. At the end of incubation the drug-containing media were decanted, the dishes were rinsed with 4 ml of Hank's Balance Salt Solution (HBSS), 5 ml of fresh medium was added, and the dishes were returned to the incubator for colony formation. The cell colonies were counted using colony counter after incubation for 7 days (HCT116 cell line), 14 days (VM46 cell line) and 15 days (H23 cell line). Cell survival (%) was calculated from 3 repeated dishes for each drug concentration and the mean values of IC50 (the drug concentration producing 50% inhibition of colony formation) were determined for each tested compound.

[8] = system: VM46 Human Colon Cancer Cells Overexpressing Multi-drug Resistant Gene 1; assay: Colony formation assay, VM46; type: cell-based; conditions: read-out: IC50 (VM46)
Method: as §1

[9] = system: HCT116 Human Colon Cancer Cells; assay: Colony formation assay, HCT116; type: cell-based
Method: as §1

[10] = system: HCT116 human colon cancer xenografts; assay: Preliminary in vivo efficacy, HCT116 xenografts in nude mice; set-up: species or system nude mice (nu/nu genotype); conditions: single i.p. injection at i.p. MTD doses
Method: In vivo anticancer efficacy study was performed on nude mice (nu/nu genotype) bearing HCT116 human colon cancer xenografts. These human tumors grew exponentially following implantation into the flanks of the mice and reached an average tumor volume of 79.85 cu. mm. Treatment was initiated at that time, with the first day of treatment designated as day 0 for all calculations and plots. The 6 mice were injected i.p. with each of four Neovia drug solutions (5% alcohol, 5% Cremophor EL, and 90% saline, 0.5 ml/20 g, single injection). Drug doses (i.p. MTD doses) were 120 mg/kg for Neovia-1, 300 mg/kg for Neovia-2, 120 mg/kg for Neovia-3, and 180 mg/kg for Neovia-4. Control group of mice was treated with vehicle alone. After treatment, tumor sizes were measured by caliper every other day. The measurement of the tumor diameters (d1, d2) in two orthogonal directions was used to calculate the tumor volume (tumor volume=π/6 {(d1+d2)/2}3) using the approximation that the tumors are spherical. Each tumor growth curve for each mouse was plotted. The time (days) required to grow the tumor to the size of 800 cu. mm after various treatments was calculated as tumor growth delay indexes for evaluating the treatment effects. Survival times after treatment was also observed and recorded.

[11] = in vivo; conditions: female, C3H, mouse, ip
[12] = Homo sapiens, drugs 72 hours, colonies counted after 15 days
[13] = Homo sapiens, drugs 72 hours, colonies counted after 14 days
[14] = Homo sapiens, HCT-116, drugs 72 hours, colonies counted after 7 days, read-out: IC50 (HCT116)

With `CCC1(OC(=O)COc2ccc(C(=O)OC3c4cc5c(cc4C(c4cc(OC)c(OC)c(OC)c4)C4C(=O)OCC34)OCO5)cc2)C(=O)OCc2c1cc1n(c2=O)Cc2cc3cc(OC(=O)N4CCC(N5CCCCC5)CC4)ccc3nc2-1.Cl` (centres unmarked) [Compound 801-HCl] the “Mean Tumor Volume” value ([1]; 300 mg/kg ip Days 8, 11, 14, Day 8) was 159 ± 16 mm^3, the “Mean Tumor Volume” value ([1]; 300 mg/kg ip Days 8, 11, 14, Day 11) was 221 ± 27 mm^3 and the “Mean Tumor Volume” value ([1]; 300 mg/kg ip Days 8, 11, 14, Day 14) was 164 ± 16 mm^3. For the same compound, the “Mean Tumor Volume” value ([1]; 300 mg/kg ip Days 8, 11, 14, Day 18) was 47 ± 7 mm^3, the “Mean Tumor Volume” value ([1]; 300 mg/kg ip Days 8, 11, 14, Day 21) was 39 ± 6 mm^3 and the “Mean Tumor Volume” value ([1]; 300 mg/kg ip Days 8, 11, 14, Day 25) was 74 ± 12 mm^3. For the same compound, the “Mean Tumor Volume” value ([1]; 300 mg/kg ip Days 8, 11, 14, Day 28) was 95 ± 19 mm^3, the “maximum BW loss” value ([1]; 300 mg/kg ip, next day after the 2nd dosing) was 7.7% and the “TGI (Day 25)” value ([1]; K562, 300 mg/kg ip Days 8, 11, 14) was 98%. The “CR ratio (ratio of complete regression)” value ([1]; K562, 300 mg/kg ip Days 8, 11, 14, by Day 21) was 3/8, the “MTD Values” [2] was 300 mg/kg and the TGI ([3]; 125 mg/kg i.p. q3d x 3) was 93%. The MTD ([4]; normal Sprague-Dawley rats, 6 mg/ml via intravenous infusion or slow intravenous injection) was 120 mg/kg/day, the TGI ([5]; 125 mg/kg i.p. q3d x 3, day 29) was 70% and the “MTD for repeating dosing” value ([6]; 5-day repeat dose, intravenous infusion) was 30 mg/kg/day. It also gave an MTD ([6]; intravenous infusion twice daily with a 5-hour interval) of 60 mg/kg/day.
With `CCC1(OC(=O)COc2ccc(C(=O)OC3c4cc5c(cc4C(c4cc(OC)c(OC)c(OC)c4)[C@H]4C(=O)OC[C@@H]34)OCO5)cc2)C(=O)OCc2c1cc1n(c2=O)Cc2cc3c(CN(C)C)c(O)ccc3nc2-1` (some centres unmarked) [Compound N1] the IC50 [7, 12] was 7.05 nM, the IC50 [8, 13] was 8 nM and the IC50 [9, 14] was 24.2 nM.
With `CCC1(OC(=O)COc2ccc(C(=O)OC3c4cc5c(cc4C(c4cc(OC)c(OC)c(OC)c4)C4C(=O)OCC34)OCO5)cc2)C(=O)OCc2c1cc1n(c2=O)Cc2cc3cc(OC(=O)N4CCC(N5CCCCC5)CC4)ccc3nc2-1` (centres unmarked) [Compound N2] the IC50 ([7]; drugs 72 hours, colonies counted after 15 days) was 462 nM, the “MTD Values” [2] was 300 mg/kg and the IC50 ([8]; drugs 72 hours, colonies counted after 14 days) was roughly 520 nM. The “inhibiting the growth of HCT116 human colon cancer xenografts” value [10] was “most promising candidate drug against HCT116 human colon cancer among all 4 compounds”, the IC50 ([9]; drugs 72 hours, colonies counted after 7 days, read-out: IC50 (HCT116)) was greater than 500 nM and the “MTD for repeating dosing” value ([4]; rats, BID slow IV injection for 7 days) was 60 mg/kg/day.
Compound `CCc1c2c(nc3ccc(OC(=O)N4CCC(N5CCCCC5)CC4)cc13)-c1cc3c(c(=O)n1C2)COC(=O)C3(CC)OC(=O)COc1ccc(C(=O)OC2c3cc4c(cc3C(c3cc(OC)c(OC)c(OC)c3)[C@H]3C(=O)OC[C@@H]23)OCO4)cc1` (some centres unmarked) [Compound N3] has an IC50 ([7]; Homo sapiens) of 200 nM, an IC50 ([8]; Homo sapiens) of 300 nM and an IC50 ([9]; Homo sapiens, HCT-116, read-out: IC50 (HCT116)) of 283 nM.
`CCc1c2c(nc3ccc(O)c(CN(C)C)c13)-c1cc3c(c(=O)n1C2)COC(=O)C3(CC)OC(=O)COc1ccc(C(=O)OC2c3cc4c(cc3C(c3cc(OC)c(OC)c(OC)c3)[C@H]3C(=O)OC[C@@H]23)OCO4)cc1` (some centres unmarked) [Compound N4] showed an MTD [11] of 250 mg/kg, an IC50 [7, 12] of 12.9 nM and an IC50 [8, 13] of 5 nM. It also gave an IC50 [9, 14] of 6.6 nM.
Work on `CCc1c2c(nc3ccc(OC(=O)N4CCC(N5CCCCC5)CC4)cc13)-c1cc3c(c(=O)n1C2)COC(=O)[C@]3(O)CC` [Irinotecan] yielded a TGI ([3]; 70 mg/kg i.p. q3d x 3) of 92%, a body weight loss ([3]; HCT116 model, during the treatment period) of 8% and a TGI ([5]; 70 mg/kg i.p. q3d x 3, day 29) of 97%.
For `CCC1(OC(=O)COc2ccc(C(=O)OC3c4cc5c(cc4C(c4cc(OC)c(OC)c(OC)c4)C4C(=O)OCC34)OCO5)cc2)C(=O)OCc2c1cc1n(c2=O)Cc2cc3c(CN(C)C)c(O)ccc3nc2-1.Cl` (centres unmarked) [N1 HCL Salt], the “MTD Values” [2] was 120 mg/kg.
In the case of `CCc1c2c(nc3ccc(OC(=O)N4CCC(N5CCCCC5)CC4)cc13)-c1cc3c(c(=O)n1C2)COC(=O)C3(CC)OC(=O)COc1ccc(C(=O)OC2c3cc4c(cc3C(c3cc(OC)c(OC)c(OC)c3)C3C(=O)OCC23)OCO4)cc1.Cl` (centres unmarked) [N3 HCL Salt], the “MTD Values” [2] is reported as 144 mg/kg.
In the case of `CCc1c2c(nc3ccc(O)c(CN(C)C)c13)-c1cc3c(c(=O)n1C2)COC(=O)C3(CC)OC(=O)COc1ccc(C(=O)OC2c3cc4c(cc3C(c3cc(OC)c(OC)c(OC)c3)C3C(=O)OCC23)OCO4)cc1.Cl` (centres unmarked) [N4 HCL Salt], the “MTD Values” [2] is reported as 180 mg/kg.
